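At the GI50, growth is halved. TGI marks complete inhibition of growth.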
What was measured:
Assay in all cases: NCI-60 cell line screen, 384-well format
IGROV1 ovarian = tested on: IGROV1 ovarian
MDA-MB-435 melanoma = tested on: MDA-MB-435 melanoma
HL-60(TB) leukemia = tested on: HL-60(TB) leukemia
NCI-H460 NSCLC = tested on: NCI-H460 NSCLC
SR leukemia = tested on: SR leukemia
DU-145 prostate = tested on: DU-145 prostate
KM12 colon = tested on: KM12 colon
OVCAR-5 ovarian = tested on: OVCAR-5 ovarian
OVCAR-4 ovarian = tested on: OVCAR-4 ovarian
T-47D breast = tested on: T-47D breast
CCRF-CEM leukemia = tested on: CCRF-CEM leukemia
SF-539 CNS = tested on: SF-539 CNS
HOP-62 NSCLC = tested on: HOP-62 NSCLC
LOX IMVI melanoma = tested on: LOX IMVI melanoma
MDA-MB-231 breast = tested on: MDA-MB-231 breast
HS 578T breast = tested on: HS 578T breast
U251 glioblastoma = tested on: U251 glioblastoma
HOP-92 NSCLC = tested on: HOP-92 NSCLC
SNB-75 CNS = tested on: SNB-75 CNS
A549 NSCLC = tested on: A549 NSCLC
OVCAR-3 ovarian = tested on: OVCAR-3 ovarian
NCI-H226 lung = tested on: NCI-H226 lung
UO-31 renal = tested on: UO-31 renal
ACHN renal = tested on: ACHN renal
SW-620 colon = tested on: SW-620 colon
MOLT-4 leukemia = tested on: MOLT-4 leukemia
SNB-19 CNS = tested on: SNB-19 CNS
TK-10 renal = tested on: TK-10 renal
SK-MEL-2 melanoma = tested on: SK-MEL-2 melanoma
K-562 leukemia = tested on: K-562 leukemia
RPMI-8226 leukemia = tested on: RPMI-8226 leukemia
SK-OV-3 ovarian = tested on: SK-OV-3 ovarian
UACC-62 melanoma = tested on: UACC-62 melanoma
MALME-3M melanoma = tested on: MALME-3M melanoma
NCI/ADR-RES ovarian = tested on: NCI/ADR-RES ovarian
M14 melanoma = tested on: M14 melanoma
EKVX NSCLC = tested on: EKVX NSCLC
786-0 renal = tested on: 786-0 renal
SF-295 CNS = tested on: SF-295 CNS
NCI-H522 lung = tested on: NCI-H522 lung
RXF 393 renal = tested on: RXF 393 renal
OVCAR-8 ovarian = tested on: OVCAR-8 ovarian
BT-549 breast = tested on: BT-549 breast
SK-MEL-5 melanoma = tested on: SK-MEL-5 melanoma
HCT-116 colon = tested on: HCT-116 colon
A498 renal = tested on: A498 renal
CAKI-1 renal = tested on: CAKI-1 renal
NCI-H322M lung = tested on: NCI-H322M lung
MCF7 breast = tested on: MCF7 breast
HCT-15 colon = tested on: HCT-15 colon
MDA-MB-468 breast = tested on: MDA-MB-468 breast
HCC-2998 colon = tested on: HCC-2998 colon
PC-3 prostate = tested on: PC-3 prostate
SF-268 CNS = tested on: SF-268 CNS
SK-MEL-28 melanoma = tested on: SK-MEL-28 melanoma
SN12C renal = tested on: SN12C renal
COLO 205 colon = tested on: COLO 205 colon
NCI-H23 lung = tested on: NCI-H23 lung
UACC-257 melanoma = tested on: UACC-257 melanoma
HT29 colon = tested on: HT29 colon

## Cc1cnc(NC2CCOCC2)nc1-n1cnc(C(=O)N[C@H](CN)c2cc(F)cc(Cl)c2)c1
IGROV1 ovarian
  GI50: 0.0403 µM
  TGI: 7.92 µM
MDA-MB-435 melanoma
  GI50: 0.0181 µM
  TGI: 17.9 µM
HL-60(TB) leukemia
  GI50: 0.0172 µM
  TGI: 1.24 µM
NCI-H460 NSCLC
  GI50: 0.0985 µM
  TGI: 13.6 µM
SR leukemia
  GI50: 2.54 µM
  TGI: 11 µM
DU-145 prostate
  GI50: 0.768 µM
  TGI: 25.5 µM
KM12 colon
  GI50: 0.0295 µM
  TGI: 17.5 µM
OVCAR-5 ovarian
  GI50: < 0.01 µM
  TGI: 46.9 µM
OVCAR-4 ovarian
  GI50: 21.1 µM
  TGI: 48.5 µM
T-47D breast
  GI50: 15.6 µM
  TGI: 30.3 µM
CCRF-CEM leukemia
  GI50: 1.47 µM
  TGI: 3.19 µM
SF-539 CNS
  GI50: 2.05 µM
  TGI: 12.4 µM
HOP-62 NSCLC
  GI50: 1.26 µM
  TGI: 17.3 µM
LOX IMVI melanoma
  GI50: < 0.01 µM
  TGI: 0.0258 µM
MDA-MB-231 breast
  GI50: 0.0374 µM
  TGI: 21.5 µM
HS 578T breast
  GI50: 0.509 µM
  TGI: 21.1 µM
U251 glioblastoma
  GI50: 0.0756 µM
  TGI: 10.5 µM
HOP-92 NSCLC
  GI50: 0.0238 µM
  TGI: 0.0814 µM
SNB-75 CNS
  GI50: 11.4 µM
  TGI: 23.6 µM
A549 NSCLC
  GI50: 0.0423 µM
  TGI: 18.5 µM
OVCAR-3 ovarian
  GI50: 1.05 µM
  TGI: 16.8 µM
NCI-H226 lung
  GI50: 0.063 µM
  TGI: 38.3 µM
UO-31 renal
  GI50: 0.577 µM
  TGI: 10.6 µM
ACHN renal
  GI50: 1.27 µM
  TGI: 18 µM
SW-620 colon
  GI50: 0.0225 µM
  TGI: 10.5 µM
MOLT-4 leukemia
  GI50: 1.26 µM
  TGI: 2.54 µM
SNB-19 CNS
  GI50: 3.68 µM
  TGI: 21.5 µM
TK-10 renal
  GI50: 0.0919 µM
  TGI: 3.7 µM
SK-MEL-2 melanoma
  GI50: < 0.01 µM
  TGI: 0.0235 µM
K-562 leukemia
  GI50: 0.198 µM
  TGI: 2.52 µM
RPMI-8226 leukemia
  GI50: 2.55 µM
  TGI: 14.5 µM
SK-OV-3 ovarian
  GI50: 0.807 µM
  TGI: 15.4 µM
UACC-62 melanoma
  GI50: < 0.01 µM
  TGI: 0.0412 µM
MALME-3M melanoma
  GI50: < 0.01 µM
NCI/ADR-RES ovarian
  GI50: 25.7 µM
  TGI: > 100 µM
M14 melanoma
  GI50: < 0.01 µM
  TGI: 0.0408 µM
EKVX NSCLC
  GI50: 0.524 µM
  TGI: 14.4 µM
786-0 renal
  GI50: 2.2 µM
  TGI: 16.3 µM
SF-295 CNS
  GI50: 3.58 µM
  TGI: 16.3 µM
NCI-H522 lung
  GI50: 0.0524 µM
  TGI: 16.9 µM
RXF 393 renal
  GI50: 1.59 µM
  TGI: 15 µM
OVCAR-8 ovarian
  GI50: 4.35 µM
  TGI: 19.7 µM
BT-549 breast
  GI50: 2.21 µM
  TGI: 13 µM
SK-MEL-5 melanoma
  GI50: 0.0173 µM
  TGI: 4.58 µM
HCT-116 colon
  GI50: < 0.01 µM
  TGI: 0.0348 µM
A498 renal
  GI50: 0.405 µM
  TGI: 12.1 µM
CAKI-1 renal
  GI50: 0.0705 µM
  TGI: 11.5 µM
NCI-H322M lung
  GI50: 0.0215 µM
  TGI: 23.9 µM
MCF7 breast
  GI50: 1.09 µM
  TGI: 13.2 µM
HCT-15 colon
  GI50: 2.78 µM
  TGI: 20.8 µM
MDA-MB-468 breast
  GI50: 0.351 µM
  TGI: 2.32 µM
HCC-2998 colon
  GI50: < 0.01 µM
  TGI: 0.0123 µM
PC-3 prostate
  GI50: 6.1 µM
  TGI: 20.2 µM
SF-268 CNS
  GI50: 6.61 µM
  TGI: 20.4 µM

## CO[C@H]1C[C@@H]2CC[C@@H](C)[C@@](O)(O2)C(=O)C(=O)N2CCCC[C@H]2C(=O)O[C@H]([C@H](C)C[C@@H]2CC[C@@H](O)[C@H](OC)C2)CC(=O)[C@H](C)C=C(C)[C@@H](O)[C@@H](OC)C(=O)[C@H](C)C[C@H](C)/C=C/C=C/C=C1C
IGROV1 ovarian
  TGI: 15.3 µM
MDA-MB-435 melanoma
  GI50: 11.6 µM
  TGI: 24.2 µM
HL-60(TB) leukemia
  GI50: 3.98 µM
  TGI: 7.97 µM
NCI-H460 NSCLC
  TGI: 16.8 µM
SR leukemia
  TGI: 1.89 µM
DU-145 prostate
  GI50: 4.69 µM
  TGI: 36.2 µM
KM12 colon
  GI50: 10.2 µM
  TGI: 23.1 µM
OVCAR-5 ovarian
  GI50: 12.9 µM
  TGI: 27.4 µM
OVCAR-4 ovarian
  GI50: 9.82 µM
  TGI: 25.5 µM
T-47D breast
  GI50: 1.33 µM
  TGI: 36.6 µM
CCRF-CEM leukemia
  TGI: 7.12 µM
SF-539 CNS
  GI50: 2.53 µM
  TGI: 19.6 µM
HOP-62 NSCLC
  TGI: 20.2 µM
LOX IMVI melanoma
  GI50: 13.1 µM
  TGI: 25.8 µM
MDA-MB-231 breast
  GI50: 12 µM
  TGI: 24.5 µM
HS 578T breast
  TGI: 9.94 µM
U251 glioblastoma
  GI50: 3.94 µM
  TGI: 20.3 µM
HOP-92 NSCLC
  GI50: 11 µM
  TGI: 25 µM
SNB-75 CNS
  GI50: 13 µM
  TGI: 25.8 µM
A549 NSCLC
  TGI: > 45.4 µM
OVCAR-3 ovarian
  GI50: 10.9 µM
  TGI: 24.2 µM
NCI-H226 lung
  GI50: 10.3 µM
  TGI: 23.5 µM
UO-31 renal
  GI50: 11 µM
  TGI: 23.2 µM
SK-MEL-28 melanoma
  GI50: 12.7 µM
  TGI: 25.5 µM
ACHN renal
  GI50: 1.61 µM
  TGI: 23.4 µM
SW-620 colon
  GI50: 13 µM
  TGI: 26 µM
MOLT-4 leukemia
  TGI: 4.88 µM
SNB-19 CNS
  GI50: 6.46 µM
  TGI: 23.2 µM
TK-10 renal
  GI50: 0.518 µM
  TGI: 27.5 µM
SK-MEL-2 melanoma
  GI50: 11.2 µM
  TGI: 27.9 µM
K-562 leukemia
  GI50: 4.35 µM
  TGI: 18.4 µM
RPMI-8226 leukemia
  TGI: 4.45 µM
SK-OV-3 ovarian
  GI50: 10.7 µM
  TGI: 22.9 µM
UACC-62 melanoma
  GI50: 4.54 µM
  TGI: 19.7 µM
SN12C renal
  GI50: 7.42 µM
  TGI: 24.5 µM
MALME-3M melanoma
  TGI: 20.6 µM
NCI/ADR-RES ovarian
  GI50: 14.9 µM
  TGI: 34.2 µM
M14 melanoma
  GI50: 11 µM
  TGI: 23.7 µM
EKVX NSCLC
  GI50: 12.3 µM
  TGI: 29.1 µM
786-0 renal
  GI50: 5.99 µM
  TGI: 26.9 µM
SF-295 CNS
  TGI: 20 µM
NCI-H522 lung
  GI50: 6.69 µM
  TGI: 21.4 µM
RXF 393 renal
  GI50: 12.5 µM
  TGI: 25.2 µM
OVCAR-8 ovarian
  GI50: 7.29 µM
  TGI: 22.6 µM
BT-549 breast
  GI50: 3.98 µM
  TGI: 18.7 µM
COLO 205 colon
  GI50: 11.3 µM
  TGI: 23.4 µM
HCT-116 colon
  GI50: 8.71 µM
  TGI: 24.2 µM
A498 renal
  TGI: 17.4 µM
CAKI-1 renal
  TGI: 21.5 µM
NCI-H322M lung
  GI50: 12.7 µM
  TGI: 25.8 µM
MCF7 breast
  TGI: 15.4 µM
HCT-15 colon
  GI50: 3.92 µM
  TGI: 19.7 µM
MDA-MB-468 breast
  TGI: 8.1 µM
NCI-H23 lung
  GI50: 12 µM
  TGI: 24.8 µM
UACC-257 melanoma
  GI50: 16 µM
  TGI: 29.6 µM
HT29 colon
  GI50: 6.66 µM
  TGI: 21.8 µM
HCC-2998 colon
  GI50: 4.72 µM
  TGI: 18.6 µM
PC-3 prostate
  TGI: 17.9 µM
SF-268 CNS
  GI50: 10.2 µM
  TGI: 23.8 µM
